Laboratory results published in PMC13083723 (Patterns, 2026).

Test system: Vero-E6 cells
Assay: cells
Format: cell-based
Conditions: for activation at 10 µM: Chlorocebus sabaeus, Vero C1008, 24 h, read-out: PL_Result

SMILES | activation at 10 µM [%] | PL_Result
Oc1cc2c(cc1O)CN(C(=S)NCCc1ccc(Cl)cc1)CCC2 [SPE_K44849676] | -5.94 | –
CCC(C)(C)C(=O)C(=O)N1CCC[C@H]1C(=O)OCCCc1cccnc1 [SPE_K44869961] | 2.45 | –
Cc1ccc(-c2nc3ccc(C)cn3c2CC(=O)N(C)C)cc1 [SPE_K44876623] | -2.13 | –
CS(=O)(=O)c1ccc(-c2cn3ccccc3n2)cc1 [SPE_K45125084] | -7.32 | –
O=C1NC(=S)NC(=O)C1C(=O)Nc1ccccc1 [SPE_K45152786] | -1.42 | –
C[C@H](CCC(=O)NCCS(=O)(=O)O)[C@H]1CC[C@H]2[C@@H]3[C@@H](O)C[C@@H]4C[C@H](O)CC[C@]4(C)[C@H]3CC[C@]12C [SPE_K45245728] | -11.6 | –
C=C(C)[C@@H]1CC[C@]2(C(=O)O)CC[C@]3(C)[C@H](CC[C@@H]4[C@@]5(C)CC[C@H](O)C(C)(C)[C@@H]5CC[C@]43C)[C@@H]12 [SPE_K45401373] | -11.4 | –
O=[N+]([O-])c1cc(Cl)ccc1S(=O)(=O)N1CCN(Cc2ccccc2)CC1 [SPE_K45519571] | 3.29 | –
CCN(CC)C(=O)N1CCN(C)CC1 [SPE_K45542189] | 3.18 | –
Cc1cc(N2CCOCC2)ccc1Nc1nc(NC2CCCCC2)c2nc[nH]c2n1 [SPE_K45551181] | -0.298 | –
CCCCC/C=C\C/C=C\CCCCCCCC(=O)NCCCC(=O)O [SPE_K46254452] | 0.426 | –
CC(C)Oc1ccc(-c2nc(-c3cccc4c3CC[C@@H]4NCCO)no2)cc1C#N [SPE_K46625559] | -0.603 | –
Cn1ncnc1COc1nn2c(-c3cc(F)ccc3F)nnc2cc1C(C)(C)C [SPE_K46647427] | -14.8 | –
Cc1[nH]cnc1CN1CCc2c(c3ccccc3n2C)C1=O [SPE_K46742498] | 6.83 | –
CC(=O)Nc1ccc(C(=O)O)cc1 [SPE_K47195926] | 3.66 | –
Cc1c(NC(=O)c2cccnc2)c(=O)n(-c2ccccc2)n1C [SPE_K47407372] | -10.1 | –
Cc1cc2sc(NC(=O)Cc3ccccc3)nc2cc1Cl [SPE_K47409078] | 0.438 | –
COc1ccc(C2C(=O)c3ccccc3C2=O)cc1 [SPE_K47458712] | -11.2 | –
CC(=O)NC[C@H]1CN(c2ccc(N3CCN(C(=O)CO)CC3)c(F)c2)C(=O)O1 [SPE_K47554101] | -3.34 | –
Cc1cccc(NC(=O)c2ccc(C(F)(F)F)cc2C(=O)O)n1 [SPE_K47816470] | -2.17 | –
CC(C)CN(C[C@@H](O)[C@H](Cc1ccccc1)NC(=O)O[C@H]1CCOC1)S(=O)(=O)c1ccc(N)cc1 [SPE_K47827687] | 0.458 | –

SMILES | activation at 10 µM [%] | PL_Result
NC[C@@H]1CC[C@@H](N)[C@@H](O[C@H]2[C@H](O)[C@@H](O[C@H]3O[C@H](CO)[C@@H](O)[C@H](N)[C@H]3O)[C@H](N)C[C@@H]2N)O1 [SPE_K48427910] | -9.88 | –
O=C1NC(c2cccc([N+](=O)[O-])c2)=CCN1c1ccccc1O [SPE_K48869804] | 1.47 | –
CCC/C=C1\OC(=O)C2=C1CCC=C2 [SPE_K48875051] | -12.3 | –
Cc1c(N)cccc1Cn1ccc(OCCc2cccs2)cc1=O [SPE_K48888725] | 1.09 | –
O=C(Oc1ccccc1C(=O)O)c1ccccc1O [SPE_K48892307] | -11.6 | –
C[C@H](CCC(=O)O)[C@H]1CC[C@H]2[C@@H]3C[C@H](O)[C@@H]4C[C@H](O)CC[C@]4(C)[C@H]3CC[C@]12C [SPE_K49031386] | -3.75 | –
Nc1nc2ccc(Cl)cc2c2nc(-c3ccco3)nn12 [SPE_K49049886] | 7.39 | –
Cn1cc(-c2cc(Oc3cc(F)c(NC(=O)C4(C(=O)Nc5ccccc5)CC4)cc3F)ccn2)cn1 [SPE_K49246350] | -0.953 | –
Cc1nc(Nc2ncc(C(=O)Nc3c(C)cccc3Cl)s2)cc(N2CCN(CCO)CC2)n1 [SPE_K49328571] | 0.377 | –
COc1ccc(Cl)c(Nc2nc3ccccc3nc2NS(=O)(=O)c2cccc(NC(=O)C(C)(C)N)c2)c1 [SPE_K49456274] | -4.27 | –
CCN1CCC(n2cc(CNc3cc(Cl)c4ncc(C#N)c(Nc5ccc(F)c(Cl)c5)c4c3)nn2)CC1 [SPE_K49468759] | 33.2 | –
C1CCC2(CC1)CCNCC2 [SPE_K49545903] | -14.5 | –
COC(=O)Nc1ccc(-c2nc(N3CCOCC3)c3cnn(C4CCN(Cc5cccnc5)CC4)c3n2)cc1 [SPE_K49900195] | 1.79 | –
CCOc1c2c(c(OCC)c3ccccc13)C(=O)N(c1ccc(CC(=O)NS(=O)(=O)c3ccccc3)cc1)C2 [SPE_K50005760] | -9.22 | –
C=CC(=O)N1CCC(Oc2cc3c(Nc4ccc(Cl)c(Cl)c4F)ncnc3cc2OC)CC1 [SPE_K50010139] | -3.41 | –
C[C@@H]1CN(Cc2ncccn2)C[C@H]1c1nc2c(cnn2C2CCOCC2)c(=O)[nH]1 [SPE_K50031829] | -10.7 | –
CCOc1cc(N2CCC(O)CC2)ccc1Nc1ncc2c(n1)N(C)c1ccccc1C(=O)N2C [SPE_K50387473] | -6.3 | –
COc1cc2ncnc(Nc3ccc(Oc4ccccc4)cc3)c2cc1OC [SPE_K50495309] | -8.17 | –
CN(C(=O)c1ccc(F)cc1C(F)(F)F)C1CCN(c2nnc(-c3ccnn3C)c3ccccc23)CC1 [SPE_K50498985] | -8 | –
CC(C)[C@H](CO)Nc1nc(Nc2cccc(Cl)c2)c2ncn(C(C)C)c2n1 [SPE_K50836978] | 1.32 | –
CCCN1CCCC[C@H]1C(=O)Nc1c(C)cccc1C [SPE_K50938786] | 0.0286 | –

SMILES | activation at 10 µM [%] | PL_Result
COCCN1CCC(C(=O)NO)(S(=O)(=O)c2ccc(Oc3ccc(OC(F)(F)F)cc3)cc2)CC1 [SPE_K51102532] | -13.6 | –
CNCC(=O)O [SPE_K51263939] | -0.786 | –
CCCC(CCC)C(=O)NCc1ccc2c(cnn2-c2ccccc2OC)c1 [SPE_K51265828] | 1.45 | –
CC(=O)OCC(=O)[C@H]1CC[C@H]2[C@@H]3CC[C@H]4C[C@H](O)CC[C@]4(C)[C@H]3C(=O)C[C@]12C [SPE_K51751936] | -4.71 | –
N#Cc1cnc2cnc(NCc3cccnc3)cc2c1Nc1ccc(F)c(Cl)c1 [SPE_K51776215] | 4.19 | –
CN1CC[C@@H](c2c(O)cc(O)c3c(=O)cc(-c4ccccc4Cl)oc23)[C@@H]1CO [SPE_K51791723] | 1.15 | –
CCOCCn1c(C2CCN(CCc3ccc(C(C)(C)C(=O)O)cc3)CC2)nc2ccccc21 [SPE_K51937257] | -5.44 | –
COc1c(C)cnc(Cn2cnc3c(Cl)nc(N)nc32)c1C [SPE_K51967704] | -7.08 | –
C[C@]12CC[C@H]3[C@@H](CCC4=CC(=O)CC[C@@H]43)[C@@H]1CC[C@@H]2O [SPE_K52080565] | -3.9 | –
COc1ccc(F)c(F)c1C(=O)c1cnc(NC2CCN(S(C)(=O)=O)CC2)nc1N [SPE_K52233191] | -6.09 | –
CNC(=O)[C@H]1O[C@@H](n2cnc3c(NCc4cccc(I)c4)nc(Cl)nc32)[C@H](O)[C@@H]1O [SPE_K52396582] | -2.9 | –
CC(=O)NNC(=O)N1Cc2ccccc2Oc2ccc(Cl)cc21 [SPE_K52512893] | -10.6 | –
CC(=O)c1ccc(S(=O)(=O)NC(=O)NC2CCCCC2)cc1 [SPE_K52960356] | 6.72 | –
Nc1nc2[nH]nnc2c(=O)[nH]1 [SPE_K53114651] | -1.39 | –
CCOC(=O)C1=C[C@]2(CC)CCCN3CCc4c(n1c1ccccc41)[C@@H]32 [SPE_K53318339] | -10.5 | –
CCOC(=O)c1cc2ccc(O)cc2oc1=O [SPE_K53438416] | -0.478 | –
OC[C@H]1O[C@@H](c2ccc(Cl)c(Cc3ccc(O[C@H]4CCOC4)cc3)c2)[C@H](O)[C@@H](O)[C@@H]1O [SPE_K53765467] | -10 | –
CN(CC[C@@H](Oc1ccc(-c2ccccc2)cc1)c1ccc(F)cc1)CC(=O)O [SPE_K53979406] | -9.75 | –
CC(C)C(N)=O [SPE_K54057105] | -7.86 | –
c1ccc(C2CC2)c(OCC2=NCCN2)c1 [SPE_K54142781] | -12.4 | –
Fc1ccc(-c2c3cccc(C(F)(F)F)c3nn2Cc2ccc(F)cc2Cl)cc1 [SPE_K54520417] | -2.25 | –

SMILES | activation at 10 µM [%] | PL_Result
Oc1ccc([C@H]2COc3cc(O)ccc3C2)cc1 [SPE_K54847683] | -12.7 | –
NC(=O)c1cccc2cn(-c3ccc([C@@H]4CCCNC4)cc3)nc12 [SPE_K54955827] | -6.71 | –
Cc1nc(NC(=O)N2CCC[C@H]2C(N)=O)sc1-c1ccnc(C(C)(C)C(F)(F)F)c1 [SPE_K54997624] | 12.6 | –
Nc1ncn([C@@H]2O[C@H](CO)[C@@H](O)[C@H]2O)c(=O)n1 [SPE_K55026842] | -12.3 | –
CC[C@@]1(O)C(=O)OCc2c1cc1n(c2=O)Cc2cc3c(CN(C)C)c(O)ccc3nc2-1 [SPE_K55696337] | -1.88 | –
CCn1cnc2c(Nc3cccc(Cl)c3)nc(N[C@@H]3CCCC[C@@H]3N)nc21 [SPE_K56239177] | 0.0914 | –
CC[N+](CC)(CC)CC(=O)Nc1c(C)cccc1C [SPE_K56596464] | -0.251 | –
O=C(O)CCCNC(=O)c1cccnc1 [SPE_K56691760] | 0.477 | –
O=C(Nc1ccc(N2CCC(C(=O)N3CCOCC3)CC2)cc1)c1cnc(Oc2ccccc2)nc1 [SPE_K57708067] | -4.61 | –
CC(C)C[C@H](NC(=O)[C@H](Cc1ccccc1)NC(=O)CNC(=O)[C@H](C)NC(=O)[C@@H](N)Cc1ccc(O)cc1)C(=O)O [SPE_K57927309] | – | -0.1658
CC1=CC[C@@H](C(C)(C)O)C[C@@H]1O [SPE_K58262380] | -11.5 | –
CC(C)c1cc(C(=O)N2Cc3ccc(CN4CCN(C)CC4)cc3C2)c(O)cc1O [SPE_K58435339] | 0.714 | –
COc1cc2c(cc1OC)-c1cc3ccc(OC)c(OC)c3c[n+]1CC2 [SPE_K58466253] | 0.986 | –
O=C(/C=C/c1cccnc1)NCCCCC1CCN(C(=O)c2ccccc2)CC1 [SPE_K58550667] | 2.51 | –
Oc1cc(O)c2c(c1)O[C@H](c1ccc(O)c(O)c1)[C@@H](O)C2 [SPE_K58736316] | -12.2 | –
COc1ccc2cc([C@H](C)C(=O)O)ccc2c1 [SPE_K59197931] | -3.31 | –
CC(C)Oc1ccc2c(=O)c3cc(C(=O)O)ccc3oc2c1 [SPE_K59339270] | -2.83 | –
CC(C)[C@@H](N)C(=O)O [SPE_K59424860] | 0.189 | –
